Results taken from publication PMC4954776 (Nature chemical biology, 2013).
Values belong to the compound of their own block, whether it stands above or below them.

Columns and labels:
[1] = biological target: T1, PERK kinase domain dimerization (Mus musculus, UniProt Q9Z2B5, DEL661-875); experiment: Sedimentation velocity analytical ultracentrifugation of PERK kinase domain; assay type: binding, Murine; details: saturating concentrations; 40 μM inhibitor, 500 μM ADP with 2 mM MgCl2
T1 sequence (Q9Z2B5 with tags, fused parts or gaps DEL661-875): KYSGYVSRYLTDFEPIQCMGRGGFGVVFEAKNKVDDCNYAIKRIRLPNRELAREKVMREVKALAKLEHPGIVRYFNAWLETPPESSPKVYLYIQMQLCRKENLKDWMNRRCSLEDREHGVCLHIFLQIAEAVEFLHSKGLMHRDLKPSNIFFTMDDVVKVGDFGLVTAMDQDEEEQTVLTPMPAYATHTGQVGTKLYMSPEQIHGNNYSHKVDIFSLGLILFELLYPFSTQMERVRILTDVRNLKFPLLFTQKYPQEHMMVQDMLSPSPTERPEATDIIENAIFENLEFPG

[2] = test system: RAF family members (ARAF, BRAF, CRAF, KSR1, KSR2) kinase domain dimers; experiment: Panel of RAF dimerization BRET biosensors; assay type: cell-based; details: for induction of RAF dimerization in kinase inhibitor library screen: collection of 184 compounds, Fig. 5a; for RAFKD dimer induction profile across biosensor panel: dose-response, BRAFKD and CRAFKD acceptor probes, Fig. 2c
[3] = biological target: BRAF kinase domain (residues 444 to 723, BRAF16mut) dimerization (Homo sapiens, UniProt P15056, A688R/F667E/I543A/I544S/I551K/K630S/K723G/L588N/L706S/L716E/P722S/Q562R/Q709R/S713E/Y673S); assay type: binding; details: 40 μM inhibitor, or 200 μM AMP-PNP / ADP with 200 μM MgCl2; Fig. 5e
ERK phosphorylation = ERK phosphorylation in RAF-expressing HEK293T cells; assay type: cell-based; details: 2 μM, Fig. 4f
CRAF homodimers = CRAF homodimers (Homo sapiens, UniProt P04049); experiment: BRET biosensor CRAF homodimers; assay type: cell-based; details: Fig. 2c
BRAFKD F595R = BRAFKD F595R (Homo sapiens, UniProt P15056, F595R); experiment: BRET saturation curves, BRAF R spine mutant; assay type: cell-based; details: Fig. 6c
[4] = biological target: BRAFKD/BRAFKD (RlucII-BRAFKD-CAAX / GFP10-BRAFKD-CAAX) (Homo sapiens, UniProt P15056); experiment: BRET titration curves, BRAFKD homodimerization biosensor; assay type: cell-based; details: Fig. 1c
CRAFKD / BRAFKD [5] = biological target: T2, CRAFKD / BRAFKD (Homo sapiens, UniProt P04049+P15056); experiment: BRET dose-response, CAAX-boxed CRAFKD/BRAFKD biosensor; assay type: cell-based; details: 10 μM; Fig. 4b
CRAFKD / BRAFKD [6] = biological target: T2, CRAFKD / BRAFKD; experiment: High-throughput chemical screen with CRAFKD/BRAFKD biosensor; assay type: cell-based; details: 10 μM screening concentration; Fig. 4a
[7] = biological target: BRAFKD T529M / BRAFKD T529M (Homo sapiens, UniProt P15056, T529M); experiment: BRET dose-response, BRAFKD T529M gatekeeper mutant homodimerization; assay type: cell-based; details: Fig. 4g
BRAF/CRAF dimers = BRAF/CRAF dimers (Homo sapiens, UniProt P04049+P15056); experiment: Co-immunoprecipitation of full-length GFP-CRAF and Flag-BRAF; assay type: cell-based; details: SB202190 and SB203580 10 μM; Fig. 4d
KSR1KD / MEK1 = KSR1KD / MEK1 (Homo sapiens, UniProt Q8IVT5); experiment: BRET selectivity assay, KSR1KD/MEK1 pair; assay type: cell-based; details: 10 μM; Fig. 4b
BRAF/BRAF dimers = BRAF/BRAF dimers (Homo sapiens, UniProt P15056); experiment: Co-immunoprecipitation of full-length BRAF/BRAF dimers; assay type: cell-based; details: 10 μM; Fig. 4e
BRAFKD WT / BRAFKD WT = BRAFKD WT / BRAFKD WT (Homo sapiens, UniProt P15056); assay type: cell-based; details: 33 nM; Fig. 1e
BRAFKD WT / BRAFKD R509H = BRAFKD WT / BRAFKD R509H (Homo sapiens, UniProt P15056, R509H); assay type: cell-based; details: 33 nM; Fig. 1e
BRAF/KSR1 dimers = BRAF/KSR1 dimers (Homo sapiens, UniProt P15056+Q8IVT5); experiment: BRET biosensor BRAF/KSR1 dimers; assay type: cell-based; details: Fig. 2c
[8] = Solubility in aqueous solution; assay type: physicochemical

Chain of KSR1KD / MEK1 (Q8IVT5 602-921): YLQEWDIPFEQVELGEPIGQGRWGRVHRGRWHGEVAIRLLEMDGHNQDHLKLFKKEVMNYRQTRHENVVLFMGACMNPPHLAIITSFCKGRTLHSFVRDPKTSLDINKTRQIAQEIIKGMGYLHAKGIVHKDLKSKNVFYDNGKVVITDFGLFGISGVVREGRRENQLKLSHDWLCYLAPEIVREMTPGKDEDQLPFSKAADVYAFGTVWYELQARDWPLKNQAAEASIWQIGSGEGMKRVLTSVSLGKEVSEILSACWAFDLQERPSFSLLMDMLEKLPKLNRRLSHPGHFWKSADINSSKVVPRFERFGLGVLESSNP
Chain of KSR1KD / MEK1 (Q02750 whole entry partner): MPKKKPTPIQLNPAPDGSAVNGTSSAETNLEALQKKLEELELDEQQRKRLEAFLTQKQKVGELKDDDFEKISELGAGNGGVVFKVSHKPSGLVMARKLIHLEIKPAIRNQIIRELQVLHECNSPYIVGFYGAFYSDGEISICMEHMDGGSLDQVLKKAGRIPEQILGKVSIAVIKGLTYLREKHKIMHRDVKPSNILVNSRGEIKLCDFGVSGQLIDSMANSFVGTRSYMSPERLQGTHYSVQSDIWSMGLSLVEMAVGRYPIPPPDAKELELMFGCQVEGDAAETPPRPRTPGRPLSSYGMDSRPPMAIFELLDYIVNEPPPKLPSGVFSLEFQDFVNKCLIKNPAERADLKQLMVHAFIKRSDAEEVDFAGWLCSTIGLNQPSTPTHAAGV
Chain of CRAF homodimers (P04049 340-648): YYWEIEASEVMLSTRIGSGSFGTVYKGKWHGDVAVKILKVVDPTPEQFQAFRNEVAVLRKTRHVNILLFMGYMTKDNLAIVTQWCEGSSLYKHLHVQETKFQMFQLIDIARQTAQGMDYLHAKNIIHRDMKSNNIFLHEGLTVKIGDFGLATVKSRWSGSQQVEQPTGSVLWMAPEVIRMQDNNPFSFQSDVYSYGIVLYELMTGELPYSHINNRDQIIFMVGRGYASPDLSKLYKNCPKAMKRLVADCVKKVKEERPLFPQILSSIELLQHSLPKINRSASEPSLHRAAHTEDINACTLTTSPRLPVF
Chain of CRAF homodimers (P04049 340-648): as above

SMILES: Cn1cc(-c2ccc3c(c2)CCN3C(=O)Cc2cc(F)cc(C(F)(F)F)c2)c2c(N)ncnc21 [close structural analog of GSK2606414, 5-(1-{[3-Fluoro-5-(trifluoromethyl)phenyl]acetyl}-2,3-dihydro-1H-indol-5-yl)-7-methyl-7H-pyrrolo[2,3-d]pyrimidin-4-amine]
effect on PERK kinase domain dimerization [1]: strongly promoted dimerization

SMILES: Cc1cn(-c2cc(NC(=O)c3ccc(C)c(Nc4nccc(-c5cccnc5)n4)c3)cc(C(F)(F)F)c2)cn1 [Nilotinib]
induction of RAF dimerization in kinase inhibitor library screen [2]: significant inducers of RAF dimerization

SMILES: Cc1nc(Nc2ncc(C(=O)Nc3c(C)cccc3Cl)s2)cc(N2CCN(CCO)CC2)n1 [Dasatinib]
induction of RAF dimerization in kinase inhibitor library screen [2]: significant inducers of RAF dimerization

SMILES: Nc1ncnc2c1ncn2[C@@H]1O[C@H](COP(=O)(O)OP(=O)(O)O)[C@@H](O)[C@H]1O [ADP]
effect on PERK kinase domain dimerization [1]: weakly promoted dimerization
effect on BRAF kinase domain dimerization relative to apo state [3]: inhibited dimer formation

SMILES: C[S+]([O-])c1ccc(-c2nc(-c3ccncc3)c(-c3ccc(F)cc3)[nH]2)cc1 (centres unmarked) [SB203580]
ERK activity in RAF transfected cells (ERK phosphorylation): stimulated ERK activity

SMILES: Nc1ncnc2c1ncn2[C@@H]1O[C@H](COP(=O)(O)OP(=O)(O)NP(=O)(O)O)[C@@H](O)[C@H]1O [AMP-PNP]
effect on BRAF kinase domain dimerization relative to apo state [3]: inhibited dimer formation

SMILES: CNC(=O)c1cc(Oc2ccc(NC(=O)Nc3ccc(Cl)c(C(F)(F)F)c3)cc2)ccn1 [Sorafenib]
solubility in aqueous solution [8]: limited solubility
RAFKD dimer induction profile across biosensor panel [2]: relatively weak RAFKD dimer inducers

Continued, in another order:

effect on PERK kinase domain dimerization [1]: potently promotes
SMILES: Cn1cc(-c2ccc3c(c2)CCN3C(=O)Cc2cccc(C(F)(F)F)c2)c2c(N)ncnc21 [GSK2606414, 7-Methyl-5-(1-{[3-(trifluoromethyl)phenyl]acetyl}-2,3-dihydro-1H-indol-5-yl)-7H-p yrrolo[2,3-d]pyrimidin-4-amine]

induction of CRAF homodimers (CRAF homodimers): strongly promoted
dimerization of BRAF R spine mutant (F595R), BRET saturation curves (BRAFKD F595R): promote dimerization
effect on BRET50 in titration experiments [4]: significantly reduced
RAFKD dimer induction profile across biosensor panel [2]: strong and broad inducers
SMILES: Cc1ccc(NC(=O)c2cccc(C(C)(C)C#N)c2)cc1Nc1ccc2ncn(C)c(=O)c2c1 [AZ-628]

effect on CRAFKD/BRAFKD BRET signal (CRAFKD / BRAFKD [5]): induces
rank among inducers of CRAFKD/BRAFKD dimerization in HTS (CRAFKD / BRAFKD [6]): most potent inducer
effect of T529M gatekeeper mutant on inhibitor-induced BRAFKD homodimerization [7]: reduces
BRAF/CRAF dimerization by co-immunoprecipitation (BRAF/CRAF dimers): increased BRAF/CRAF dimerization
effect on BRET produced by the KSR1KD/MEK1 pair (KSR1KD / MEK1): does not alter
BRAF homodimerization by co-immunoprecipitation (BRAF/BRAF dimers): induced BRAF homodimerization
effect on BRAF kinase domain dimerization relative to apo state [3]: promoted dimerization
SMILES: Oc1ccc(-c2nc(-c3ccncc3)c(-c3ccc(F)cc3)[nH]2)cc1 [SB202190]
ERK activity in RAF transfected cells (ERK phosphorylation): stimulated ERK activity

time at which BRET induction plateaued (BRAFKD WT / BRAFKD WT): ≤ 60 min
time at which activity (BRET induction) could first be detected (BRAFKD WT / BRAFKD WT): 5 min
response of R509H mutant biosensor to drug (BRAFKD WT / BRAFKD R509H): insensitive
induction of BRAF/KSR1 dimers (BRAF/KSR1 dimers): strongly induced
effect on BRET50 in titration experiments [4]: significantly reduced
RAFKD dimer induction profile across biosensor panel [2]: strong and broad inducers
SMILES: OCCn1cc(-c2ccc3c(c2)CC/C3=N\O)c(-c2ccncc2)n1 [GDC-0879]

RAFKD dimer induction profile across biosensor panel [2]: relatively weak RAFKD dimer inducers
SMILES: CCCS(=O)(=O)Nc1ccc(F)c(C(=O)c2c[nH]c3ncc(Cl)cc23)c1F [PLX4720]
